In this assay the target is SUV420H1 enzyme (Homo sapiens, UniProt Q4FZB7). Put plainly: TR-FRET SAH SUV420H1 enzyme inhibition assay. Format: biochemical. The note with it: Histone Peptide H4(8-30)me1 and SAM, TR-FRET detection of SAH, read-out: TR-FRET SAH_SUV420H1 IC50. As to the method:
Test compounds were dispensed by a Labcyte Echo in 384-well low volume assay plates with 3-fold serial dilutions from 50 μM to 0.00075 μM. 5 μL of SUV420H1 enzyme (Abbvie) at 90 nM was added to all wells except for the no enzyme control wells and incubated for 30 minutes at room temperature before 5 μL of Histone Peptide H4(8-30)me1 (Anaspec) at 5 μM and SAM at 4 μM was added to all wells. The plates were incubated in a humidified chamber overnight at room temp and then 10 μL of the detection reagent that contained RIPA buffer (50 mM Tris-HCl, pH 8.0, 150 mM sodium chloride, 1.0% Igepal CA-630 (NP-40), 0.5% sodium deoxycholate and 0.1% sodium dodecyl sulfate) (Sigma) with 2 nM of Terbium chelate anti S-adenosyl-L-homocysteine (SAH) (Abbvie) antibody and Oregon Green labeled SAH at 4 nM was added. The plates were further incubated for 4 hours at room temperature. The plates were read in a Perkin Elmer Envision using a TR-FRET protocol with Excitation set at 335 nm and Emission at 520 and 495 nm. To generate dose response curves the data is normalized to percent inhibition by setting the average of the plus and minus enzyme control wells to 0% and 100% inhibition respectively. The ICso values for the compounds are generated by fitting the normalized data with Accelrys Assay Explorer 3.3 to a sigmoidal curve model using […], Y=(100*x^n)/(K^n+x^n), where Y is the measured response, x is the compound concentration, n is the Hill Slope and K is the IC50 and the lower and higher asymptotes are constrained to 0 and 100 respectively.
On the technique in general: TR-FRET usually uses a lanthanide donor and a delayed reading to cut background.

This passage reports IC50 results from US20180093956A1, “SUBSTITUTED PHTHALAZINES” (AbbVie Inc., priority 2015, published 2018).

As usually defined, the IC50 is the midpoint of a concentration-inhibition curve.

SUV420H1 enzyme, sequence (Q4FZB7 whole entry): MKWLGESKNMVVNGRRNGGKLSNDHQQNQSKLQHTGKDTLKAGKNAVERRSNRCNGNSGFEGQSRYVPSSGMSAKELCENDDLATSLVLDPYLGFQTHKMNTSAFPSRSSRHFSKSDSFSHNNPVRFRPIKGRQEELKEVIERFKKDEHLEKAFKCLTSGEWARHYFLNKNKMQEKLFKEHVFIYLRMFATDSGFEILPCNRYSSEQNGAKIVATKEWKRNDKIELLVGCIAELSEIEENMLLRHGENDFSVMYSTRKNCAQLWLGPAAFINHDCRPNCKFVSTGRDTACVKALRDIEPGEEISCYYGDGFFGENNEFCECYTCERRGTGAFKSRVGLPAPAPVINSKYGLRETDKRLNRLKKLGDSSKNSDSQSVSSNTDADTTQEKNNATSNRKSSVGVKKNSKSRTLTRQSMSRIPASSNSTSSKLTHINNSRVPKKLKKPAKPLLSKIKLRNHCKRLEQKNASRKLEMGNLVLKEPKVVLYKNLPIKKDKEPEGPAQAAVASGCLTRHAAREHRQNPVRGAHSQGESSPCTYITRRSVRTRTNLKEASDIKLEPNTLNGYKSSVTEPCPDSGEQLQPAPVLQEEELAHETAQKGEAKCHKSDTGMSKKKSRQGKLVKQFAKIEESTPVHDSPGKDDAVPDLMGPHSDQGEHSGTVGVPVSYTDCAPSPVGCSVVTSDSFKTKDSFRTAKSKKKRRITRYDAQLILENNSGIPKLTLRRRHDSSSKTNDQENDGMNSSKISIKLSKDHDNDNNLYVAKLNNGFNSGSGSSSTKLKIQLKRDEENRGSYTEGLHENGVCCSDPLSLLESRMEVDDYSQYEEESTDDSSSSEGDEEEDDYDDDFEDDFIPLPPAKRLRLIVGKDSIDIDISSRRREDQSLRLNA

Consider “6,7-dichloro-4-(cyclopentylamino)phthalazine-1-carboxylic acid [Example 38]”, for which the IC50 stood at 8680 nM.

For `O[C@@H]1CC[C@H](Nc2nnc(Cl)c3cc(Cl)c(Cl)cc23)C1` (racemic) [Example 13, rac-(1R,3S)-3-[(4,6,7-trichlorophthalazin-1-yl)amino]cyclopentanol], the IC50 is 2630 nM. On to `Clc1cc2c(NC3CCCC3)nnc(-c3ccccc3)c2cc1Cl` [Example 2, 6,7-dichloro-N-cyclopentyl-4-phenylphthalazin-1-amine], for which the IC50 worked out at 28900 nM.

As for `Clc1cc2c(NC3CCCC3)nnc(N3CCOCC3)c2cc1Cl` [Example 10, 6,7-dichloro-N-cyclopentyl-4-(morpholin-4-yl)phthalazin-1-amine], the IC50 turned out to be 48400 nM. In the case of `Clc1cc2c(NC3CCCC3)nnc(N3CCCC3)c2cc1Cl` [Example 11, 6,7-dichloro-N-cyclopentyl-4-(pyrrolidin-1-yl)phthalazin-1-amine] it was more than 50000 nM; in that of `Fc1cc(-c2nnc(NC3CCCC3)c3cc(Cl)c(Cl)cc23)ccn1` [Example 12, 6,7-dichloro-N-cyclopentyl-4-(2-fluoropyridin-4-yl)phthalazin-1-amine], 827 nM. Take `Clc1cc2c(NC3CCCC3)nnc(-c3ccc(CN4CCOCC4)cc3)c2cc1Cl` [Example 14, 6,7-dichloro-N-cyclopentyl-4-[4-(morpholin-4-ylmethyl)phenyl]phthalazin-1-amine]: the IC50 turned out to be 19100 nM. In the case of `Clc1cc2c(NC3CCCC3)nnc(-c3ccnc(N4CCCC4)c3)c2cc1Cl` [Example 15, 6,7-dichloro-N-cyclopentyl-4-[2-(pyrrolidin-1-yl)pyridin-4-yl]phthalazin-1-amine] it was more than 50000 nM.

Regarding `CN1CCN(c2cc(-c3nnc(NC4CCCC4)c4cc(Cl)c(Cl)cc34)ccn2)CC1` [Example 16, 6,7-dichloro-N-cyclopentyl-4-[2-(4-methylpiperazin-1-yl)pyridin-4-yl]phthalazin-1-amine], the IC50 was 8350 nM. The figure for `Clc1cc2c(NC3CCCC3)nnc(-c3ccnc(N4CCOCC4)c3)c2cc1Cl` [Example 17, 6,7-dichloro-N-cyclopentyl-4-[2-(morpholin-4-yl)pyridin-4-yl]phthalazin-1-amine] is 7380 nM; for `CN1CCN(c2ccc(-c3nnc(NC4CCCC4)c4cc(Cl)c(Cl)cc34)cn2)CC1` [Example 21, 6,7-dichloro-N-cyclopentyl-4-[6-(4-methylpiperazin-1-yl)pyridin-3-yl]phthalazin-1-amine] it is 1460 nM; for `Clc1cc2c(NC3CCCC3)nnc(-c3ccc(N4CCOCC4)nc3)c2cc1Cl` [Example 22, 6,7-dichloro-N-cyclopentyl-4-[6-(morpholin-4-yl)pyridin-3-yl]phthalazin-1-amine] it is 1010 nM. In the case of `CC(C)(C)OC(=O)N1CC=C(c2nnc(NC3CCCC3)c3cc(Cl)c(Cl)cc23)CC1` [Example 23, tert-butyl 4-[6,7-dichloro-4-(cyclopentylamino)phthalazin-1-yl]-3,6-dihydropyridine-1(2H)-carboxylate], the half-maximal inhibitory concentration (IC50) was found to be 1510 nM. `Clc1cc2c(NC3CCCC3)nnc(C3=CCNCC3)c2cc1Cl` [Example 24, 6,7-dichloro-N-cyclopentyl-4-(1,2,3,6-tetrahydropyridin-4-yl)phthalazin-1-amine]: the IC50 turned out to be 1280 nM. In the case of `CC(=O)N1CC=C(c2nnc(NC3CCCC3)c3cc(Cl)c(Cl)cc23)CC1` [Example 25, 1-{4-[6,7-dichloro-4-(cyclopentylamino)phthalazin-1-yl]-3,6-dihydropyridin-1(2H)-yl}ethanone] it was 1100 nM; in that of `Clc1cc2c(NC3CCCC3)nnc(-c3ccc(N4CCNCC4)nc3)c2cc1Cl` [Example 27, 6,7-dichloro-N-cyclopentyl-4-[6-(piperazin-1-yl)pyridin-3-yl]phthalazin-1-amine], 1320 nM. Regarding `OC1CCN(c2ccc(-c3nnc(NC4CCCC4)c4cc(Cl)c(Cl)cc34)cn2)CC1` [Example 28, 1-{5-[6,7-dichloro-4-(cyclopentylamino)phthalazin-1-yl]pyridin-2-yl}piperidin-4-ol], the IC50 came to 572 nM.
